Measurements taken from patent publication US20230312587A1, “PTERIDINONE COMPOUNDS AND USES THEREOF” (Vertex Pharmaceutical Incorporated, priority 2018, published 2023).
Like-named read-outs stand apart in the source and are kept apart here.

Tests used:
[1] = system: Hek293 WFS1 over-expressor; experiment: In vitro cell viability (CellTiter-Glo), Hek293 WFS1 over-expressor; format: cell-based; details: for reduction in the IC50 on over-expression of WFS1 in Hek293 cells: WFS1 over-expressor vs empty vector
Method in brief: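 HEK293 cells stably overexpressing WFS1 via retroviral transduction (puromycin-selected), with empty-vector cells as counterpart, plated 1,000/well. Compounds added at various concentrations after overnight attachment; viability by CellTiter-Glo luminescence after 96 h, reported as IC50.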

[2] = target: HEK293 membranes over-expressing WFS-1 (Homo sapiens (Human), UniProt O76024); experiment: Radioligand displacement assay (tritiated Compound 136 probe); format: binding; details: displacement of tritiated Compound 136
Method in brief: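 WFS-1-overexpressing HEK293 membranes were preincubated 10 min with compound, then tritiated probe was added for 90 min at room temperature. Bound probe was collected by filtration on PEI-pretreated GF/B filters, washed and scintillation-counted. IC50 came from a 3-parameter fit of bound probe vs compound concentration.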

[3] = Homo sapiens, HEK293, Hek293 WFS1 over-expressing cells, read-out: Hek293 WFS1 viability
[4] = Hek293 WFS1 over-expressing cells, read-out: Hek293 WFS1 viability

HEK293 membranes over-expressing WFS-1, sequence (O76024 whole entry): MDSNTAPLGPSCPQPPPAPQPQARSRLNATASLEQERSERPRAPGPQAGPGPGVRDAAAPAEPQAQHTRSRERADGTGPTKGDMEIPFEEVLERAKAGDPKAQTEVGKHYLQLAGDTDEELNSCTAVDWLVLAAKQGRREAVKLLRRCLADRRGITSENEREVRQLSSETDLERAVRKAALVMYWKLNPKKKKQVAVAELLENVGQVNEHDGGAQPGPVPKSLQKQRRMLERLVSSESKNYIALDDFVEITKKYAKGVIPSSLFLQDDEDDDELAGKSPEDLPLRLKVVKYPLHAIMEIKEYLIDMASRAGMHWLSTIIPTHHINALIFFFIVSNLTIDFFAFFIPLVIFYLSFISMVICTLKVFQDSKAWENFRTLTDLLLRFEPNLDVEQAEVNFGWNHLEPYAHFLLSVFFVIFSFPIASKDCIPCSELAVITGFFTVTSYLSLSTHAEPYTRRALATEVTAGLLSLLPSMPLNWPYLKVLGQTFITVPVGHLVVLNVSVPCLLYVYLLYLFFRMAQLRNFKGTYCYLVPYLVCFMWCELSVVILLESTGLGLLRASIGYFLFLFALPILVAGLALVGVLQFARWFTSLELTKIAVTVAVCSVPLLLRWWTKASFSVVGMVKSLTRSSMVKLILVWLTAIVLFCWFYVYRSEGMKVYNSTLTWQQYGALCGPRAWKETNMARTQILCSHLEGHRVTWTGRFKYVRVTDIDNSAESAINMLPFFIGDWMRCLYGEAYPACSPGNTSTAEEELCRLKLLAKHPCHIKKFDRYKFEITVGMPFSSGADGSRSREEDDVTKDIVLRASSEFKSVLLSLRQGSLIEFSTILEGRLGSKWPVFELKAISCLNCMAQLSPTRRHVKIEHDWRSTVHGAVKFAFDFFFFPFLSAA

| Compound | IC50 [1, 3] | IC50 [2] | further results |
| --- | --- | --- | --- |
| Cc1nc(N[C@H]2C[C@@H](COc3ccc(C(F)(F)F)cn3)C2)nc2c1NC(=O)[C@H](C)N2C [Compound 356, (7S)-4,7,8-trimethyl-2-((cis-3-(((5-(trifluoromethyl)pyridin-2-yl)oxy)methyl)cyclobutyl)amino)-7,8-dihydropteridin-6(5H)-one] | < 60 nM | 600 to 3000 nM | – |
| Cc1nc(NCc2cnn(Cc3ccc(C(F)(F)F)nc3Cl)c2)nc2c1NC(=O)[C@H](C)N2C [Compound 418, (7S)-2-(((1-((2-chloro-6-(trifluoromethyl)pyridin-3-yl)methyl)-1H-pyrazol-4-yl)methyl)amino)-4,7,8-trimethyl-7,8-dihydropteridin-6(5H)-one] | < 60 nM | < 60 nM | – |
| Cc1nc(NCc2cnn(C[C@H](C)c3ccc(F)cc3)c2)nc2c1NC(=O)[C@H](C)N2C [Compound 96, (7S)-2-(((1-((R)-2-(4-fluorophenyl)propyl)-1H-pyrazol-4-yl)methyl)amino)-4,7,8-trimethyl-7,8-dihydropteridin-6(5H)-one] | 60 to 600 nM | < 60 nM | – |
| Cc1nc(NCc2cnn(Cc3ccc(C(F)(F)F)nc3C(C)O)c2)nc2c1NC(=O)[C@H](C)N2C (stereo partly drawn) [Compound 419, (7S)-2-(((1-((2-((S)-1-hydroxyethyl)-6-(trifluoromethyl)pyridin-3-yl)methyl)-1H-pyrazol-4-yl)methyl)amino)-4,7,8-trimethyl-7,8-dihydropteridin-6(5H)-one] | 60 to 600 nM | 60 to 600 nM | – |
| Cc1nc(N(C)Cc2cnn(Cc3ccc(C(F)(F)F)nc3)c2)nc2c1NC(=O)[C@H](C)N2C [Compound 403, (7S)-4,7,8-trimethyl-2-(methyl((1-((6-(trifluoromethyl)pyridin-3-yl)methyl)-1H-pyrazol-4-yl)methyl)amino)-7,8-dihydropteridin-6(5H)-one] | ≥ 3000 nM | ≥ 3000 nM | – |
| CC[C@H]1C(=O)Nc2cnc(NCc3cnn(Cc4ccc(C(F)(F)F)nc4)c3)nc2N1C [Compound 427, (7S)-7-ethyl-8-methyl-2-(((1-((6-(trifluoromethyl)pyridin-3-yl)methyl)-1H-pyrazol-4-yl)methyl)amino)-7,8-dihydropteridin-6(5H)-one] | 60 to 600 nM | < 60 nM | – |
| Cc1nc(N[C@H]2C[C@H](Sc3ccc(F)cc3)C2)nc2c1N(C)C(=O)[C@H](C)N2C [Compound 307, (7S)-2-((trans-3-((4-fluorophenyl)thio)cyclobutyl)amino)-4,5,7,8-tetramethyl-7,8-dihydropteridin-6(5H)-one] | 60 to 600 nM | 60 to 600 nM | – |
| Cc1nc(NCc2cnn([C@@H]3C[C@@H]3c3ccc(F)cc3)c2)nc2c1NC(=O)[C@H](C)N2C [Compound 154, (7S)-2-(((1-((1R,2R)-2-(4-fluorophenyl)cyclopropyl)-1H-pyrazol-4-yl)methyl)amino)-4,7,8-trimethyl-7,8-dihydropteridin-6(5H)-one] | < 60 nM | < 60 nM | – |
| Cc1nc(NCc2cnn(Cc3ccc(F)cc3)c2)nc2c1N(C)C(=O)[C@H](C)N2C [Compound 1, (7S)-2-(((1-(4-fluorobenzyl)-1H-pyrazol-4-yl)methyl)amino)-4,5,7,8-tetramethyl-7,8-dihydropteridin-6(5H)-one] | < 60 nM | 60 to 600 nM | – |
| Cc1nc(NCc2cnn(Cc3ccc(C(F)(F)F)nc3)c2)nc2c1NC(=O)[C@H](C)N2C [Compound 136, (7S)-4,7,8-trimethyl-2-(((1-((6-(trifluoromethyl)pyridin-3-yl)methyl)-111-pyrazol-4-yl)methyl)amino)-7,8-dihydropteridin-6(5H)-one] | – | 60 to 600 nM | IC50 [1, 4]: < 60 nM; IC50 ([1]; cell viability, Hek293 WFS1 over-expressor, read-out: IC50): 30 nM; IC50 ([1]; cell viability, Hek293 WFS1 over-expressor, read-out: IC50 class): < 60 nM; reduction in the IC50 on over-expression of WFS1 in Hek293 cells ([1]; cell viability): > 1000 fold |
| Cc1nc(N[C@H]2C[C@H](Oc3ccc(C(F)(F)F)nc3)C2)nc2c1NC(=O)[C@H](C)N2C [Compound 324, (7S)-4,7,8-trimethyl-2-((trans-3-((6-(trifluoromethyl)pyridin-3-yl)oxy)cyclobutyl)amino)-7,8-dihydropteridin-6(5H)-one] | < 60 nM | < 60 nM | – |
| Cc1nc(NCc2cnn(Cc3ccc(F)cc3)c2)nc2c1NC(=O)C1(CC1)N2 [Compound 222, 2′-(((1-(4-fluorobenzyl)-1H-pyrazol-4-yl)methyl)amino)-4′-methyl-5′,8′-dihydro-6′H-spiro[cyclopropane-1,7′-pteridin]-6′-one] | ≥ 3000 nM | 600 to 3000 nM | – |
| CCOc1ccc(CCn2cc(CNc3ncc4c(n3)N(C)[C@@H](C)C(=O)N4)cn2)cc1 [Compound 121, (7S)-2-(((1-(4-ethoxyphenethyl)-1H-pyrazol-4-yl)methyl)amino)-7,8-dimethyl-7,8-dihydropteridin-6(5H)-one] | 600 to 3000 nM | 60 to 600 nM | – |
| Cc1nc(NCc2cnn(Cc3cc(C(F)(F)F)nn3C)c2)nc2c1NC(=O)[C@H](C)N2C [Compound 160, (7S)-4,7,8-trimethyl-2-(((1-((1-methyl-3-(trifluoromethyl)-1H-pyrazol-5-yl)methyl)-1H-pyrazol-4-yl)methyl)amino)-7,8-dihydropteridin-6(5H)-one] | < 60 nM | 60 to 600 nM | – |
| Cc1nc(N[C@H]2C[C@@H](Sc3cc(F)c(F)c(F)c3)C2)nc2c1NC(=O)[C@H](C)N2C [Compound 332, (7S)-4,7,8-trimethyl-2-((cis-3-((3,4,5-trifluorophenyl)thio)cyclobutyl)amino)-7,8-dihydropteridin-6(5H)-one] | < 60 nM | 60 to 600 nM | – |
| Cc1nc(NCc2cnn(Cc3ccc(C(F)(F)F)cc3)c2)nc2c1NC(=O)[C@H](C)N2C [Compound 149, (7S)-4,7,8-trimethyl-2-(((1-(4-(trifluoromethyl)benzyl)-1H-pyrazol-4-yl)methyl)amino)-7,8-dihydropteridin-6(5H)-one] | < 60 nM | 60 to 600 nM | – |
| Cc1nc(NCc2cnn(Cc3ccc(C(F)(F)F)nc3)c2)nc2c1NC(=O)C1(CCC1)N2C [Compound 398, 4′,8′-dimethyl-2′-(((1-((6-(trifluoromethyl)pyridin-3-yl)methyl)-1H-pyrazol-4-yl)methyl)amino)-5′,8′-dihydro-6′H-spiro[cyclobutane-1,7′-pteridin]-6′-one] | < 60 nM | 60 to 600 nM | – |
| Cc1nc(NCc2ccc(-n3cc(C(F)(F)F)cn3)nc2)nc2c1NC(=O)[C@H](C)N2C [Compound 143, (S)-4,7,8-trimethyl-2-(((6-(4-(trifluoromethyl)-1H-pyrazol-1-yl)pyridin-3-yl)methyl)amino)-7,8-dihydropteridin-6(5H)-one] | 60 to 600 nM | 60 to 600 nM | – |
| Cc1nc(NCc2cnn(CC(C)(O)c3ccc(F)cc3)c2)nc2c1NC(=O)[C@H](C)N2C (stereo partly drawn) [Compound 128, (7S)-2-(((1-(2-(4-fluorophenyl)-2-hydroxypropyl)-1H-pyrazol-4-yl)methyl)amino)-4,7,8-trimethyl-7,8-dihydropteridin-6(5H)-one] | 600 to 3000 nM | ≥ 3000 nM | – |
| (7S)-2-(((1-((6-fluoro-2-isopropylpyridin-3-yl)methyl)-1H-pyrazol-4-yl)methyl)(methyl)amino)-7-isopropyl-4,8-dimethyl-7,8-dihydropteridin-6(5H)-one [Compound 430] | – | < 60 nM | IC50 [1, 4]: < 60 nM |
| Cc1nc(N[C@H]2C[C@H](Oc3cc(F)c(F)c(F)c3)C2)nc2c1N(C)C(=O)[C@H](C)N2C [Compound 253, (7S)-4,5,7,8-tetramethyl-2-((trans-3-(3,4,5-trifluorophenoxy)cyclobutyl)amino)-7,8-dihydropteridin-6(5H)-one] | < 60 nM | < 60 nM | IC50 ([1]; Homo sapiens, HEK293, cell viability, Hek293 WFS1 over-expressor, read-out: IC50): 12 nM; IC50 ([1]; Homo sapiens, HEK293, cell viability, Hek293 WFS1 over-expressor, read-out: IC50 class): < 60 nM; reduction in the IC50 on over-expression of WFS1 in Hek293 cells ([1]; cell viability): > 1000 fold |
| Cc1nc(NCc2cnn([C@@H](C)c3ccc(C(F)(F)F)nc3)c2)nc2c1NC(=O)[C@H](C)N2C [Compound 174, (7S)-4,7,8-Trimethyl-2-(((1-((S)-1-(6-(trifluoromethyl)pyridin-3-yl)ethyl)-1H-pyrazol-4-yl)methyl)amino)-7,8-dihydropteridin-6(5H)-one] | < 60 nM | 60 to 600 nM | – |
| Cc1nc(NCc2cnn(Cc3ccc(F)nc3)c2)nc2c1NC(=O)[C@H](C)N2C [Compound 77] | 60 to 600 nM | 60 to 600 nM | – |
